Values of other authors as cited in patent publication US20060154981A1, “Method of reducing intraocular pressure and treating glaucoma” (Alcon, Inc., priority 2005, published 2006).

Columns and labels:
IOP = settings: rabbits
neutrophils = settings: compared with lipoxin A4

## CCCCC[C@H](O)/C=C/C=C\C=C\C=C\[C@@H](O)[C@@H](O)CCCC(=O)OC [methyl ester of lipoxin A4]
IOP
  IOP lowering: reported to lower IOP in rabbits

## CCCCC[C@H](O)[C@H](O)CO [compound 2]
neutrophils
  Inhibition of LTB4-induced chemotaxis of neutrophils: inhibit LTB4-induced chemotaxis of neutrophils as potently as lipoxin A4
